According to US20250221413A1, “Use and Preparation Method of Sulfoxamyl, and Oxidation System” (priority 2023, published 2025):
Values after ≈ are worked out from the molar mass of the structure shown. Values joined by “and” are separate entries in the source; they are usually repeats but may differ in a detail not shown here. Identical values can stand only once. “Also recorded” adds a separate entry of the source. Like-named read-outs stand apart in the source and are kept apart here.

Columns and labels:
[1] = test system: Meloidogyne incognita; assay: Indoor toxicity test against Meloidogyne incognita second-instar larvae (J2); conditions: for LC50 / mortality at 3.1 µg/mL / mortality at 6.25 µg/mL / mortality at 12.5 µg/mL / mortality at 25 µg/mL / mortality at 50 µg/mL / mortality at 100 µg/mL: Meloidogyne incognita
Protocol: Materials: the tested nematodes were collected from three different areas, namely cucumber crops in Dawenkou Town, Tai'an City, Shandong Province, and were all identified as southern root-knot nematodes (Meloidogyne incognita). The diseased roots were washed, cut into small sections of 0.5 cm to 1 cm, rinsed in 1% NaClO solution for about 30 s to 60 s, and rinsed with 200-mesh and 500-mesh sieves to collect nematode eggs for later use. The collected eggs were incubated at 25° C. using the Bayman funnel method and the second-instar larvae were collected 1 time per 24 h to ensure that the second-instar larvae selected each time were fresh and of consistent vitality.
The agent was 98% sulfoxamyl technical, and the comparison agents were 96% oxamyl technical and 87% fosthiazate technical.
The preparation for the agent was in accordance with the provisions for preparation of the liquid medicine in the Agricultural Industry Standard of the People's Republic of China NYT 1833.1-2009 “Guideline for laboratory bioassay of pesticides”, as shown in Table 6.
Methods: according to the experimental plan, the test agent was diluted to different mass concentrations, and 0.5 mL of the agent solution and 0.5 mL of the nematode solution (containing about 100 nematodes) were added into a 24-well cell culture plate. The treatment with each concentration of the agent was repeated 4 times, and auxiliary agent control and blank control were also conducted. […]

[2] = test system: Meloidogyne incognita eggs; assay: Inhibitory effect on hatching of Meloidogyne incognita eggs; format: in vivo
[3] = Meloidogyne incognita, 168 h, egg hatching, 7 d

Which Death count ([1]; 100 mg/L, 72 h) does the source give for `CNC(=O)O/N=C(/C(=O)N(C)C)S(C)(=O)=O` [Sulfoxamyl, N,N-dimethyl-2-[[[(methylamino)carbonyl]oxy]imino]-2-(methylsulfonyl)acetamide] here?
The Death count was 109 and 102 and 121 and 108.

What about the LC90 ([1]; 24 h) of the same compound?
Its LC90 is 52.89 µg/mL (≈ 210 µM).

And the LC90 ([1]; 48 h)?
Its LC90 is 56.41 µg/mL (≈ 225 µM).

What about the LC90 ([1]; 72 h) of the same compound?
The LC90 was 36.84 µg/mL (≈ 147 µM).

What about the LC50 ([1]; 24 h) of the same compound?
The LC50 was 12.5 µg/mL (≈ 49.8 µM).

And the mortality at 3.1 µg/mL ([1]; 24 h, 3.1 mg/L)?
Its mortality at 3.1 µg/mL is 14.4%.

And the mortality at 6.25 µg/mL ([1]; 24 h, 6.25 mg/L)?
The mortality at 6.25 µg/mL was 16.4%.

And the mortality at 12.5 µg/mL ([1]; 24 h, 12.5 mg/L)?
The mortality at 12.5 µg/mL was 51.4%.

And the mortality at 25 µg/mL ([1]; 24 h, 25 mg/L)?
The mortality at 25 µg/mL was 66.1%.

What about the mortality at 50 µg/mL ([1]; 24 h, 50 mg/L) of the same compound?
Its mortality at 50 µg/mL is 86.3%.

What about the mortality at 100 µg/mL ([1]; 24 h, 100 mg/L) of the same compound?
Its mortality at 100 µg/mL is 96.3%.

And the mortality at 3.1 µg/mL ([1]; 24 h, read-out: Corrected mortality, 3.1 mg/L, 24 h)?
The mortality at 3.1 µg/mL was 13.4%.

What about the mortality at 6.25 µg/mL ([1]; 24 h, read-out: Corrected mortality, 6.25 mg/L, 24 h) of the same compound?
The mortality at 6.25 µg/mL was 15.3%.

What about the mortality at 12.5 µg/mL ([1]; 24 h, read-out: Corrected mortality, 12.5 mg/L, 24 h) of the same compound?
The mortality at 12.5 µg/mL was 50.8%.

And the mortality at 25 µg/mL ([1]; 24 h, read-out: Corrected mortality, 25 mg/L, 24 h)?
Its mortality at 25 µg/mL is 65.7%.

What about the mortality at 50 µg/mL ([1]; 24 h, read-out: Corrected mortality, 50 mg/L, 24 h) of the same compound?
The mortality at 50 µg/mL was 86.2%.

What about the mortality at 100 µg/mL ([1]; 24 h, read-out: Corrected mortality, 100 mg/L, 24 h) of the same compound?
Its mortality at 100 µg/mL is 96.3%.

And the LC50 ([1]; 48 h)?
The LC50 was 10.2 µg/mL (≈ 40.7 µM).

What about the mortality at 3.1 µg/mL ([1]; 48 h, 3.1 mg/L) of the same compound?
The mortality at 3.1 µg/mL was 20.2%.

And the mortality at 6.25 µg/mL ([1]; 48 h, 6.25 mg/L)?
The mortality at 6.25 µg/mL was 31%.

And the mortality at 12.5 µg/mL ([1]; 48 h, 12.5 mg/L)?
The mortality at 12.5 µg/mL was 61.5%.

What about the mortality at 25 µg/mL ([1]; 48 h, 25 mg/L) of the same compound?
The mortality at 25 µg/mL was 66.1%.

And the mortality at 50 µg/mL ([1]; 48 h, 50 mg/L)?
The mortality at 50 µg/mL was 92.3%.

What about the mortality at 100 µg/mL ([1]; 48 h, 100 mg/L) of the same compound?
Its mortality at 100 µg/mL is 99.1%.

And the mortality at 3.1 µg/mL ([1]; 48 h, read-out: Corrected mortality, 3.1 mg/L, 48 h)?
The mortality at 3.1 µg/mL was 19%.

And the mortality at 6.25 µg/mL ([1]; 48 h, read-out: Corrected mortality, 6.25 mg/L, 48 h)?
The mortality at 6.25 µg/mL was 30%.

And the mortality at 12.5 µg/mL ([1]; 48 h, read-out: Corrected mortality, 12.5 mg/L, 48 h)?
The mortality at 12.5 µg/mL was 60.9%.

What about the mortality at 25 µg/mL ([1]; 48 h, read-out: Corrected mortality, 25 mg/L, 48 h) of the same compound?
Its mortality at 25 µg/mL is 65.6%.

What about the mortality at 50 µg/mL ([1]; 48 h, read-out: Corrected mortality, 50 mg/L, 48 h) of the same compound?
The mortality at 50 µg/mL was 92.2%.

What about the mortality at 100 µg/mL ([1]; 48 h, read-out: Corrected mortality, 100 mg/L, 48 h) of the same compound?
The mortality at 100 µg/mL was 99.1%.

What about the LC50 ([1]; 72 h) of the same compound?
Its LC50 is 7.41 µg/mL (≈ 29.5 µM).

And the mortality at 3.1 µg/mL ([1]; 72 h, 3.1 mg/L)?
Its mortality at 3.1 µg/mL is 37.5%.

What about the mortality at 6.25 µg/mL ([1]; 72 h, 6.25 mg/L) of the same compound?
Its mortality at 6.25 µg/mL is 35.3%.

What about the mortality at 12.5 µg/mL ([1]; 72 h, 12.5 mg/L) of the same compound?
The mortality at 12.5 µg/mL was 65.1%.

And the mortality at 25 µg/mL ([1]; 72 h, 25 mg/L)?
The mortality at 25 µg/mL was 66.1%.

What about the mortality at 50 µg/mL ([1]; 72 h, 50 mg/L) of the same compound?
Its mortality at 50 µg/mL is 98.3%.

What about the mortality at 100 µg/mL ([1]; 72 h, 100 mg/L) of the same compound?
Its mortality at 100 µg/mL is 100%.

And the mortality at 3.1 µg/mL ([1]; 72 h, read-out: Corrected mortality, 3.1 mg/L, 72 h)?
Its mortality at 3.1 µg/mL is 36.3%.

And the mortality at 6.25 µg/mL ([1]; 72 h, read-out: Corrected mortality, 6.25 mg/L, 72 h)?
The mortality at 6.25 µg/mL was 34.1%.

And the mortality at 12.5 µg/mL ([1]; 72 h, read-out: Corrected mortality, 12.5 mg/L, 72 h)?
The mortality at 12.5 µg/mL was 64.5%.

What about the mortality at 25 µg/mL ([1]; 72 h, read-out: Corrected mortality, 25 mg/L, 72 h) of the same compound?
Its mortality at 25 µg/mL is 65.5%.

And the mortality at 50 µg/mL ([1]; 72 h, read-out: Corrected mortality, 50 mg/L, 72 h)?
Its mortality at 50 µg/mL is 98.3%.

What about the mortality at 100 µg/mL ([1]; 72 h, read-out: Corrected mortality, 100 mg/L, 72 h) of the same compound?
Its mortality at 100 µg/mL is 100%.

What about the “killing (indoor nematicidal) activity against Meloidogyne incognita J2, in words” value ([1]; compared with oxamyl and fosthiazate) of the same compound?
The value was “high killing activity; also recorded: higher than that of oxamyl; also recorded: higher than that of fosthiazate”.

And the “Number of hatched eggs/7 d” value ([2]; 6.25 mg/L, 7 d)?
Its value is 102 and 92 and 96.

What about the “Number of unhatched eggs/7 d” value ([2]; 6.25 mg/L, 7 d) of the same compound?
Its value is 31 and 25 and 33.

And the “Number of hatched eggs/7 d” value ([2]; 12.5 mg/L, 7 d)?
The value was 83 and 85 and 88.

And the “Number of unhatched eggs/7 d” value ([2]; 12.5 mg/L, 7 d)?
Its value is 32 and 33 and 40.

What about the “Number of hatched eggs/7 d” value ([2]; 25 mg/L, 7 d) of the same compound?
Its value is 85 and 79 and 86.

And the “Number of unhatched eggs/7 d” value ([2]; 25 mg/L, 7 d)?
Its value is 45 and 41 and 38.

What about the “Number of hatched eggs/7 d” value ([2]; 50 mg/L, 7 d) of the same compound?
Its value is 57 and 55 and 49.

What about the “Number of unhatched eggs/7 d” value ([2]; 50 mg/L, 7 d) of the same compound?
The value was 81 and 75 and 77.

And the “Number of hatched eggs/7 d” value ([2]; 100 mg/L, 7 d)?
Its value is 44 and 40 and 42.

And the “Number of unhatched eggs/7 d” value ([2]; 100 mg/L, 7 d)?
Its value is 93 and 85 and 88.

What about the IC50 [2, 3] of the same compound?
Its IC50 is 59.5 µg/mL (≈ 237 µM).

What about the IC90 [2, 3] of the same compound?
The IC90 was 511 µg/mL (≈ 2030 µM).

What about the “inhibitory effect on hatching of nematode eggs, in words” value ([2]; in vivo) of the same compound?
Its value is “desirable inhibitory effect”.
